Data on two compounds can be found in patent publication US12122750B2, “AT2R antagonists and uses thereof” (Eli Lilly and Company, priority 2022, dated 2024).

One data set addresses rAT2R (Rattus norvegicus (Rat), UniProt P35351). Description: Rat binding affinity, competitive radioligand binding assay (SPA), rAT2R HEK293 membranes. As to conditions: rat AT2R. How it is done: Membrane Preparation Protocol (hAT2R HEK293 and rAT2R HEK293)
Receptor Binding Protocol
The assays were performed with a scintillation proximity assay (SPA) method using polyvinyltoluene (PVT) wheat germ agglutinin-coupled SPA beads (Perkin Elmer Cat. #RPNQ0001). Assay buffer containing BSA (50 mM Tris-HCl, pH 7.5, 150 mM NaCl, 0.1% w/v fatty-acid free BSA) was used for preparing radioligand, membrane and SPA bead reagent dilution to working stock concentrations. Reference control and test compounds were diluted to obtain ten-point concentration response curves using a four-fold serial dilution protocol onto assay plates, dispensed acoustically from DMSO stock using automated ECHO instrument technology (Labcyte, Inc.). Concentration response curves were routinely generated with the highest final assay concentration for the reference angiotensin-II control at 50 nM, and the highest final assay concentration for the test compounds at 50 μM. […] The hAT2R membrane was combined with PVT-WGA SPA beads to obtain a final assay concentration of 0.25 μg/well hAT2R membrane+0.1 mg/well PVT-WGA SPA bead. And the hAT1R membrane PVT-WGA SPA bead final concentrations was 0.5 μg/well hAT1R membrane+0.1 mg/well PVT-WGA SPA bead. […] For all assays, radioligand addition was followed by the addition of membrane-SPA bead mixture, i.e., the hAT2R membrane-SPA bead mixture (30 μL), the rAT2R membrane-SPA bead mixture, or the AT1R membrane-SPA bead mixture (30 μL) into the assay plate. All dispensing steps were added using a Multiflo FX (Biotek, Inc.) bulk dispensing instrument. After reagent addition steps, assay plates were sealed, and plate contents mixed for one minute on a benchtop micro-plate shaker. Following a 10-hour incubation at room temperature to allow for bead settling and radioligand binding, bound radioactivity was quantitated using a Microbeta Trilux scintillation counter (Perkin Elmer) and expressed as counts per minute (CPM). The unlabeled angiotensin-II control was included on each plate as an experimental assay reference.
Compounds were tested in a 10-point concentration response curve (CRC) format, with each plate containing the positive control angiotensin-II positive reference compound, and experimental compounds. Maximum binding response (Max) was determined in 32 control wells per plate using assay buffer treatment only, and the minimum binding controls or nonspecific binding response (Min) was also determined in 32 wells per plate by the treatment with 50 nM angiotensin-II. All test sample concentration responses were normalized to the control response and calculated as a percent of the maximal response after correcting for nonspecific binding as shown below: % Specific inhibition=100%−[(CPM−Min)/(Max−Min)×100%]
Percent specific binding (y-axis) was plotted versus the log concentration of compound (x-axis).

A short description of data set [1]: Plasma concentration of test compound in the receptor occupancy study. The data set is classed as in vivo, Sprague Dawley rats. As to conditions: rat. How it is done:
Twenty male Sprague Dawley rats (140-150 gms, Envigo) were maintained under controlled laboratory conditions on a 12 hr light cycle with ad lib access to food and water. On the morning of the experiment, rats were orally dosed with vehicle (1% (w/v) hydroxyethylcellulose, 0.25% (w/v) polysorbate 80, 0.05% (v/v) antifoam 1510-US in purified water) or appropriate doses of test compound (5 mL/kg, n=4 rats/group) using the same vehicle. Following a pre-determined survival time, plasma and adrenals were collected and frozen at −80° C. until analyzed. Frozen 20 μm sections of an adrenal from each animal were collected onto gelatin-coated slides and stored at −80° C. Autoradiography to detect AT2R occupancy (RO) was conducted under cold conditions using methods modified from F. M. J. Heemskerk, et al, Brain Research 677 (1995) 29-38. Total binding was defined by 0.3 nM ^125I-CGP42112 (selective AT2R agonist, Perkin Elmer, Inc) with the addition of 10 μM unlabeled AngII used to define non-specific binding. Following exposure to a phosphoimager plate (BAS TR2025, GE Healthcare), the bound radioactivity is calculated with use of MCID software (Imaging Research, Inc) and calibrated ^125I standards (American Radiolabeled Chemicals, Inc). The specific ligand binding for each animal is calculated by subtracting the non-specific binding from the total bound.

The next data set concerns the target AT2R (Rattus norvegicus (Rat), UniProt P35351). As to the kind of experiment: AT2R ex vivo autoradiography receptor occupancy in rat adrenal sections after oral dosing. As to conditions: for pIC50 / IC80: plasma concentration plotted vs % receptor occupancy, rat; for receptor occupancy at 0.3 mg/kg: oral dose 0.3 mg/kg; for receptor occupancy at 1 mg/kg: oral dose 1 mg/kg; for receptor occupancy at 3 mg/kg: oral dose 3 mg/kg; for receptor occupancy at 10 mg/kg: oral dose 10 mg/kg; for ex vivo IC50 (TER) / ex vivo IC80 (TER): rat receptor occupancy. Details: species or system Sprague Dawley rats. The protocol: The ability for a compound to engage its target may be measured by determining compound's receptor occupancy. An ex vivo autoradiography assay was conducted as described herein.
Twenty male Sprague Dawley rats (140-150 gms, Envigo) were maintained under controlled laboratory conditions on a 12 hr light cycle with ad lib access to food and water. […] Following a pre-determined survival time, plasma and adrenals were collected and frozen at −80° C. until analyzed. Frozen 20 μm sections of an adrenal from each animal were collected onto gelatin-coated slides and stored at −80° C. […] The specific ligand binding for each animal is calculated by subtracting the non-specific binding from the total bound.

pIC50, pKi: −log10 of the molar value.

Chain of AT2R (P35351 whole entry): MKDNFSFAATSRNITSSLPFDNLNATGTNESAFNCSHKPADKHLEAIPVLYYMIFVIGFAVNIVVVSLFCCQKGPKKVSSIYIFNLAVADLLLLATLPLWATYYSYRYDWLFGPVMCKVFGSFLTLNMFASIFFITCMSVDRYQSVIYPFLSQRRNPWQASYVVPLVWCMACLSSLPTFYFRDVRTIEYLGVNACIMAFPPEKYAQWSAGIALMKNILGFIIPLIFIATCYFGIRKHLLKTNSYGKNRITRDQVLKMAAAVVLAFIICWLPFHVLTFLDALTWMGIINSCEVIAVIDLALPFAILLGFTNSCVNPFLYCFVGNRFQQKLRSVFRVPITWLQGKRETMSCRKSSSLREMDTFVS
Chain of rAT2R (P35351 whole entry): as above

In the case of `O=C(N1CCC(CC(=O)N(c2ccccc2)c2ccccc2)(C(=O)O)CC1)N1CCc2ccccc21` [Example 3, 1-(indoline-1-carbonyl)-4-[2-oxo-2-(N-phenylanilino)ethyl]piperidine-4-carboxylic acid], the pKi at rAT2R is 8.66. Also, in data set [1] (oral dose 0.3 mg/kg), the “[plasma, free, nM]” value is on record as 0.482 nM. The “[plasma, free, nM]” value in data set [1] (oral dose 1 mg/kg) turned out to be 1.74 nM. For the same compound, the “[plasma, free, nM]” value in data set [1] (oral dose 3 mg/kg) turned out to be 5.99 nM. Further, in data set [1] (oral dose 10 mg/kg), the “[plasma, free, nM]” value was 15.8 nM. Further, at AT2R, the negative logarithm of the IC50 (pIC50) was 9.09, the 80% effect concentration (IC80) is 3.34 nM, the “ex vivo IC50 (TER)” value was 0.375 TER and the “ex vivo IC80 (TER)” value is recorded as 1.525 TER. Besides, on AT2R (rat adrenal, read-out: % RO), the receptor occupancy at 0.3 mg/kg was determined as 37.8%, the receptor occupancy at 1 mg/kg was 61.9%, the receptor occupancy at 3 mg/kg worked out at 83.5% and the receptor occupancy at 10 mg/kg came out at 90.5%.

`CN(C(=O)N1CCC(CC(=O)N(c2ccccc2)C(C2CC2)C2CC2)(C(=O)O)CC1)c1ccc(F)cc1` [Example 18, 4-[2-[N-(dicyclopropylmethyl)anilino]-2-oxo-ethyl]-1-[(4-fluorophenyl)-methyl-carbamoyl]piperidine-4-carboxylic acid] had a pKi on rAT2R of 9.21. Moreover, the “[plasma, free, nM]” value in data set [1] (oral dose 0.01 mg/kg) is reported as 0.0298 nM. Moreover, in data set [1] (oral dose 0.03 mg/kg), the “[plasma, free, nM]” value is given as 0.224 nM. Moreover, the “[plasma, free, nM]” value in data set [1] (oral dose 0.1 mg/kg) is on record as 0.476 nM. In addition, in data set [1] (oral dose 1 mg/kg), the “[plasma, free, nM]” value came out at 2.57 nM. On AT2R, the pIC50 is 9.94, the IC80 is 0.449 nM, the “ex vivo IC50 (TER)” value amounted to 0.186 TER and the “ex vivo IC80 (TER)” value is on record as 0.731 TER. The receptor occupancy at 0.01 mg/kg on AT2R (rat adrenal, oral dose 0.01 mg/kg, read-out: % RO) amounted to 16.3%. In addition, the receptor occupancy at 0.03 mg/kg at AT2R (rat adrenal, oral dose 0.03 mg/kg, read-out: % RO) worked out at 65%. For the same compound, the receptor occupancy at 0.1 mg/kg at AT2R (rat adrenal, oral dose 0.1 mg/kg, read-out: % RO) was 76.3%. Besides, at AT2R (rat adrenal, read-out: % RO), the receptor occupancy at 0.3 mg/kg came to 79.3%, the receptor occupancy at 1 mg/kg is 93.2%, the receptor occupancy at 3 mg/kg stood at 90.9% and the receptor occupancy at 10 mg/kg came to 93%.
